The results in this text go back to article PMC6328429, “Synthesis of a benzoxazinthione derivative of tanaproget and pharmacological evaluation for PET imaging of PR expression” (EJNMMI Radiopharmacy and Chemistry, 2019).

Series [1] concerns the target T1, progesterone receptor (PR) (Homo sapiens, UniProt P06401).
T1 construct: endogenous in cells; host or cells: T47D breast carcinoma cells
T1 sequence (P06401 1-933): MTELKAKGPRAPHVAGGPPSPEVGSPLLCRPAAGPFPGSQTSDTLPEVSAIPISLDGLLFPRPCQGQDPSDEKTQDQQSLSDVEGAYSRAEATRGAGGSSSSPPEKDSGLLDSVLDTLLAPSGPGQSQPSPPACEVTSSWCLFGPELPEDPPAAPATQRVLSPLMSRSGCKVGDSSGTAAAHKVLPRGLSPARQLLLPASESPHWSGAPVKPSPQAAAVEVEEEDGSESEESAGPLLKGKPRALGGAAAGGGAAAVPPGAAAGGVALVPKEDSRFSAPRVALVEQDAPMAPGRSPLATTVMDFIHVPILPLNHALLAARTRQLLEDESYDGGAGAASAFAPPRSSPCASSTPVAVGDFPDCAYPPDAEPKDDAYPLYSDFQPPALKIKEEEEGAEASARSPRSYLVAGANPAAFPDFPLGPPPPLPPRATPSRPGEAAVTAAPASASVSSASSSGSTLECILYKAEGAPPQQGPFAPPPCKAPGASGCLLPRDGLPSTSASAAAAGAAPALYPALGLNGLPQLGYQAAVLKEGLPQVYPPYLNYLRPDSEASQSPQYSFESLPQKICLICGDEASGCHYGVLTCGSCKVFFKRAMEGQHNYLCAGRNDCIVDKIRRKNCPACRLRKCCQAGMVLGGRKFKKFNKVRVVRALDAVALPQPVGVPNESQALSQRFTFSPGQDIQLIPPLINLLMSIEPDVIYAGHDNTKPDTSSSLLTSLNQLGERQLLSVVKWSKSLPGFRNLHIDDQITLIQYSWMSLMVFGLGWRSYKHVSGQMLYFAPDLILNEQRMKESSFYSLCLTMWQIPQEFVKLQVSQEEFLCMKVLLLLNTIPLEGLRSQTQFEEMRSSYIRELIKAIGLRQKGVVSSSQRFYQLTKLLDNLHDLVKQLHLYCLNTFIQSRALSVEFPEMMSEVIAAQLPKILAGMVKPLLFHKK
Nature of the series: T47D alkaline phosphatase (AP) potency assay. The class given is cell-based. The conditions noted are these: for EC50 / T47D alkaline phosphatase assay EC50: agonist response, 48 h incubation; for EC50 / T47D alkaline phosphatase assay EC50 / IC50: average of at least n = 3 ± SD; for IC50: inhibition of progesterone. The procedure: The method described by Di Lorenzo et al was followed with minor adaptation (Di Lorenzo et al., [1991]). In brief, T47D breast carcinoma cells were seeded in 96-well plates at 50,000 cell/well in RPMI medium supplemented with 10% FBS. After overnight culture, the medium was changed to RPMI phenol red free containing 2% charcoal-stripped FBS. After 24 h, the cells were treated with progesterone (Sigma Aldrich, Gillingham, UK) or the library compounds. Progesterone and the test compounds were dissolved in DMSO (100%) and diluted into treatment medium to give a final DMSO (v/v) concentration of 0.1%. After incubation (48 h) the treatment was finalised by twice washing the plates with PBS. Cells were lysed by two freeze-thaw cycles (− 80 °C). Cellular alkaline phosphatase activity was determined by adding Femto ELISA-AP substrate (200 μL) and optical density measurements taken at 5 and 10 min intervals at a wavelength of 405 nm. Data was interpreted using Graphpad Prism (GraphPad, CA, USA) using the model: dose-response simulation/inhibition, log(agonist/inhibition) vs. response – variable slope (four parameters). For compounds where EC50 > 10,000, an antagonist profile was assumed and the experiment was repeated with the inclusion of progesterone (3 mM) with the library compound. Data shown in the supporting information (Additional file 1: Figure S32).

Series [2] is described as follows: In vitro non-radioactive metabolite analysis and clearance in MLM. The class given is in vitro ADME, mouse. Here is the method:
(§1) Microsomal incubations were performed using a Hamilton Microlab Star liquid handling workstation (Hamilton Robotics, Bonaduz, Switzerland). Test compound 2 (final concentration 1 or 10 μM, 1% DMSO) was pre-incubated at 37 °C for 10 min in MLM or HLM (final concentration 1 mg/ml prepared in 10 mM PBS). Reactions were initiated by the addition of NADPH (final concentration 1 mM). Aliquots were removed from each incubation and quenched in 3 volumes of ice-cold MeOH containing internal standard olomoucine (500 nM in MeOH) at − 1, 0, 5, 15, 30 and 60 min. Incubations were conducted in singlicate. […] Terminated incubations were centrifuged at 3700 rpm at 4 °C for 30 min and supernatant taken for analysis. Microsomal incubations were analysed by liquid chromatography-tandem mass spectrometry (LC-MS/MS). This consisted of a Dionex Ultimate 3000 UHPLC system coupled to a ThermoScientific Q Exactive Plus orbitrap mass spectrometer (Thermo Fisher Scientific Inc., Waltham, USA). Chromatographic separation was achieved using an Acquity UPLC HSS T3 column (1.8 μm, 100 × 2.1 mm) (Waters, Elstree, UK) at 50 °C and a binary mobile phase gradient at a flow rate of 0.4 ml/min. Initial LC conditions comprised 10% formic acid (0.1%) in water (A), 90% methanol (B). This was ramped to […] at 12 min. Sample analysis was by positive ion electrospray ionization. The capillary voltage was 3.5 kV. Full MS/dd-MS^2 (full MS scan followed by data dependent MS/MS) and Full MS/AIF (full MS scan followed by all ion fragmentation) workflows were used in combination. Full MS was performed at a resolution of 70,000, AGC target 1 e^6; dd-MS2 at a resolution of 17,5000, AGC target 1 e^5. LC-MS response (peak area of the analyte/peak area of internal standard) was fitted to a nonlinear single exponential model using software GraphPad Prism software (v6.07, GraphPad Software, Inc., La Jolla, USA). Elimination rate constant (k) was determined and intrinsic clearance, CLint, was calculated as CLint = (V.k)/mg protein where V is the incubation volume (μl) and mg protein is the mg microsomal protein in the incubation. Identification of metabolites in microsomal incubations and elucidation of their structures was undertaken with Compound Discoverer software (v2.0.0.303, Thermo Fisher Scientific Inc., Waltham, USA).

The nature of series [3]: In vitro non-radioactive metabolite analysis and clearance in HLM. Format: in vitro ADME, human. The procedure: as §1

The EC50 is the concentration needed to bring the measured effect to its halfway point. A lower EC50 goes with greater potency. One may read the IC50 as the concentration needed to halve the response being measured. High values mean weaker potency in that assay, low ones greater potency in that assay. For `CC1(C)OC(=O)Nc2ccc(-c3cccnc3F)cc21` [Compound 1, 6-(2-fluoropyridin-3-yl)-4,4-dimethyl-1H-benzo[d][1,3]oxazin-2(4H)-one], in series [1], the concentration for a half-maximal effect (EC50) was greater than 10000 nM, the “T47D alkaline phosphatase assay EC50” value is “did not induce an agonist response” and the 50% inhibitory concentration (IC50) is 844.8 ± 0.23 nM. Moreover, the “Clearance (CLint) in MLM” value in series [2] (MLM 1 mg/ml, NADPH 1 mM, 37 °C) is recorded as “comparable clearance”. Also, in series [2] (MLM incubation, LC-MS/MS), the “Metabolite identification by mass spectrometry in MLM” value is listed as “defluorinated species”. Also, the “Clearance (CLint) in HLM” value in series [3] (HLM 1 mg/ml, NADPH 1 mM, 37 °C) is on record as “comparable clearance”. Further, in series [3] (HLM incubation, LC-MS/MS), the “Metabolite identification by mass spectrometry in HLM” value is “defluorinated species”.
Consider `CC1(C)OC(=O)Nc2ccc(-c3ccc(F)nc3)cc21` [Compound 3, 6-(6-fluoropyridin-3-yl)-4,4-dimethyl-1H-benzo[d][1,3]oxazin-2(4H)-one], for which, in series [1], the EC50 was greater than 10000 nM; the “T47D alkaline phosphatase assay EC50” value is listed as “did not induce an agonist response”; the midpoint of inhibition, the IC50, lay at 795 ± 0.25 nM.
As for `CC1(C)OC(=S)Nc2ccc(-c3ccc(F)nc3)cc21` [Compound 4, 6-(6-fluoropyridin-3-yl)-4,4-dimethyl-1H-benzo[d][1,3]oxazine-2(4H)-thione], the EC50 in series [1] came out at 3674 ± 0.08 nM.
Turning to `Cn1c(C#N)ccc1-c1ccc2c(c1)C(C)(C)OC(=S)N2` [TNP, Tanaproget], a half-maximal effect in series [1] (EC50) was put at 0.5 nM.
As for `CC1(C)OC(=S)Nc2ccc(-c3ccc(F)c(Cl)c3)cc21` [Compound 6, 6-(3-chloro-4-fluorophenyl)-4,4-dimethyl-1H-benzo[d][1,3]oxazine-2(4H)-thione], in series [1], the midpoint of the response, the EC50, lay at 432.5 ± 0.24 nM. In addition, in series [1] (compound 6 versus 5), the “fold more potent (EC50) than oxocarbamate derivative 5” value is recorded as roughly 5 fold.
The compound `CC1(C)OC(=O)Nc2ccc(-c3ccc(F)c(Cl)c3)cc21` [Compound 5, 6-(3-chloro-4-fluorophenyl)-4,4-dimethyl-1H-benzo[d][1,3]oxazin-2(4H)-one] registered a concentration for a half-maximal effect (EC50) in series [1] of 2294 ± 0.29 nM.
